The text below walks through data of PubChem BioAssay AID192 (DTP/NCI, 2004).

Values joined by “and” are separate entries in the source; they are usually repeats but may differ in a detail not shown here. Equal entries are not always repeated. Inconclusive results and toxic doses are left out. Numbered stars: 1 amine (or outer) side, 2 acyl side, 3 side chain; on linkers, the order of the positions; unused ones are H or OH. Bridge positions count the residues as written; N and C are the ends. Square brackets hold non-standard residues; d marks the D form. Peptide text beside a SMILES is read from it. I, II: the chains in the order shown. Actinocin(9to1) = Cc1c2oc3c(C)ccc(C(=O)[*:1])c3nc-2c(C(=O)[*:2])c(N)c1=O; NMeV = CN[CH](C(=O)O)C(C)C; Sar = CNCC(=O)O

In this assay the test system is BDF1 mice, B16 melanoma ip, median survival T/C. Put plainly: NCI In Vivo Anticancer Drug Screen. Data for tumor model B16 Melanoma (intraperitoneal) in B6D2F1 (BDF1) mice. The following applies: endpoint: median survival time, higher = longer survival. Summed up: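 Transplantable tumor model; survival or tumor size measured; reported as T/C, treated over vehicle control.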

The mark [1] stands for this setting: dose: 100.0 mg/kg/injection, schedule: Q04DX003 (ip), vehicle: Klucel (hydroxypropylcellulose) (HPC).
Where [2] appears, read: dose: 25.0 mg/kg/injection, schedule: Q01DX009 (ip), vehicle: saline with Tween-80.
[3] abbreviates: dose: 50.0 mg/kg/injection, schedule: Q01DX009 (ip), vehicle: saline with Tween-80.
Where [4] appears, read: dose: 100.0 mg/kg/injection, schedule: Q01DX009 (ip), vehicle: saline with Tween-80.
Setting [5] is: dose: 12.5 mg/kg/injection, schedule: Q01DX009 (ip), vehicle: saline.
[6] abbreviates: dose: 25.0 mg/kg/injection, schedule: Q01DX009 (ip), vehicle: saline.
[7] abbreviates: dose: 50.0 mg/kg/injection, schedule: Q01DX009 (ip), vehicle: saline.
Setting [8] is: dose: 6.25 mg/kg/injection, schedule: Q01DX009 (ip), vehicle: Klucel (hydroxypropylcellulose) (HPC).
Where [9] appears, read: dose: 12.5 mg/kg/injection, schedule: Q01DX009 (ip), vehicle: Klucel (hydroxypropylcellulose) (HPC).
[10] abbreviates: dose: 25.0 mg/kg/injection, schedule: Q01DX009 (ip), vehicle: Klucel (hydroxypropylcellulose) (HPC).
The mark [11] stands for this setting: dose: 50.0 mg/kg/injection, schedule: Q01DX009 (ip), vehicle: Klucel (hydroxypropylcellulose) (HPC).
The mark [12] stands for this setting: dose: 200.0 mg/kg/injection, schedule: Q01DX009 (ip), vehicle: Klucel (hydroxypropylcellulose) (HPC).
Setting [13] is: dose: 12.5 mg/kg/injection, schedule: Q01DX009 (ip), vehicle: saline with Tween-80.
[14] abbreviates: dose: 100.0 mg/kg/injection, schedule: Q01DX009 (ip), vehicle: Klucel (hydroxypropylcellulose) (HPC).
Where [15] appears, read: dose: 6.25 mg/kg/injection, schedule: Q01DX009 (ip), vehicle: saline.
The mark [16] stands for this setting: dose: 100.0 mg/kg/injection, schedule: Q01DX009 (ip), vehicle: saline.
The mark [17] stands for this setting: dose: 200.0 mg/kg/injection, schedule: Q01DX009 (ip), vehicle: saline.

On to `COc1ccc2c(c1)CN(S(=O)(=O)c1ccc(C)cc1)CCC2O` (centres undefined), for which the T/C reads like this: under setting [1], 96 % of control; (dose: 200.0 mg/kg/injection, schedule: Q04DX003 (ip), vehicle: Klucel (hydroxypropylcellulose) (HPC)) 93 % of control; (dose: 400.0 mg/kg/injection, schedule: Q04DX003 (ip), vehicle: Klucel (hydroxypropylcellulose) (HPC)) 95 % of control.
Regarding `CC(C)CC(Br)C(=O)NC(CC(C)C)C(=O)O` (centres undefined), the T/C is 95 % of control under setting [2]; 100 % of control under setting [3]; 95 % of control and 100 % of control under setting [4]; 108 % of control (dose: 400.0 mg/kg/injection, schedule: Q01DX009 (ip), vehicle: saline with Tween-80).
Turning to `COc1ccc(Oc2cc(CC3c4cc(OC)c(OC)cc4CCN3C)c([N+](=O)[O-])cc2OC)cc1OC` (centres undefined), the T/C runs as follows: under setting [5], 100 % of control; under setting [6], 100 % of control; under setting [7], 98 % of control.
With `FC(F)(F)c1ccc2nc(CI)c(CI)nc2c1`, the T/C was 110 % of control under setting [8], 93 % of control under setting [9], 96 % of control under setting [10] and 93 % of control under setting [11].
`CCO/C=C1\SC(=S)N(c2ccc(OCC)cc2)C1=O`: the T/C under setting [12] was 92 % of control.
In the case of `COc1ccccc1C(C#N)N1CCCN(C(C#N)c2ccccc2OC)C1c1cc(Cl)cc(Cl)c1O` (centres undefined), the T/C is, setting by setting: (dose: 6.25 mg/kg/injection, schedule: Q01DX009 (ip), vehicle: saline with Tween-80) 104 % of control; under setting [13], 101 % of control; under setting [2], 103 % of control; under setting [3], 91 % of control and 124 % of control.
With `CC(C)C(NC(=O)C(NC(=O)C(CCCN=C(N)N)NC(=O)C(N)CCCCN)C(C)C)C(N)=O` (centres undefined) (H-KRVV-NH2; configuration not given here), the T/C was 97 % of control (dose: 25.0 mg/kg/injection, schedule: Q01DX009 (ip), vehicle: water); 96 % of control (dose: 50.0 mg/kg/injection, schedule: Q01DX009 (ip), vehicle: water); 96 % of control (dose: 100.0 mg/kg/injection, schedule: Q01DX009 (ip), vehicle: water); 99 % of control (dose: 200.0 mg/kg/injection, schedule: Q01DX009 (ip), vehicle: water).
As for `CC(CCc1ccccc1)NC(C)C(O)c1ccc(O)cc1` (centres undefined), the T/C under setting [8] was 93 % of control; the T/C under setting [9] is 105 % of control; the T/C under setting [10] was 94 % of control; the T/C under setting [11] was 105 % of control; the T/C under setting [14] is 115 % of control.
Regarding `Cc1[nH]ccc2c(C)c3nc4ccc(O)cc4c3cc12`, the T/C is, setting by setting: (dose: 2.5 mg/kg/injection, schedule: Q04DX003 (ip), vehicle: water) 123 % of control; (dose: 5.0 mg/kg/injection, schedule: Q04DX003 (ip), vehicle: water) 121 % of control; (dose: 20.0 mg/kg/injection, schedule: Q04DX003 (ip), vehicle: water) 153 % of control; (dose: 40.0 mg/kg/injection, schedule: Q04DX003 (ip), vehicle: water) 113 % of control.
On to `[Cl][Pd]([Cl])([Cl])[Cl]`, for which the T/C runs as follows: under setting [15], 103 % of control; under setting [5], 92 % of control.
Regarding `CCCCCCCCCCCCNC(=O)CCl`, the T/C reads like this: under setting [14], 104 % of control; under setting [12], 102 % of control; (dose: 400.0 mg/kg/injection, schedule: Q01DX009 (ip), vehicle: Klucel (hydroxypropylcellulose) (HPC)) 100 % of control.
For `CCCCCCC1N(Cc2ccccc2N(C)C)CCCN1Cc1ccccc1N(C)C`, the T/C (dose: 75.0 mg/kg/injection, schedule: Q01DX009 (ip), vehicle: saline) was 97 % of control.
As to `Clc1ccc2c(c1)/C(=C/c1cccnc1)c1cc(Cl)cc(Cl)c1-2`, under setting [3], the T/C is 86 % of control.
In the case of `CCN(CC)CCN(C)C`, the T/C runs as follows: under setting [7], 118 % of control; under setting [16], 112 % of control; under setting [17], 103 % of control.
With `CC1COS(=O)O1` (centres undefined), the T/C is, setting by setting: (dose: 10.0 mg/kg/injection, schedule: Q01DX009 (ip), vehicle: saline sonified) 102 % of control; (dose: 20.0 mg/kg/injection, schedule: Q01DX009 (ip), vehicle: saline sonified) 100 % of control; (dose: 40.0 mg/kg/injection, schedule: Q01DX009 (ip), vehicle: saline sonified) 102 % of control.
For the molecule `CC(O)C(O)C=O` (centres undefined), the T/C by setting is: (dose: 248.0 mg/kg/injection, schedule: Q01DX009 (ip), vehicle: saline) 108 % of control; (dose: 346.0 mg/kg/injection, schedule: Q01DX009 (ip), vehicle: saline) 97 % of control; (dose: 576.0 mg/kg/injection, schedule: Q01DX009 (ip), vehicle: saline) 104 % of control.
As for `COc1ccc(Nc2c3ccccc3nc3ccccc23)cc1`, the T/C under setting [13] was 120 % of control.
For the molecule `CC1=C2C(=O)c3ccccc3C2=C(C)S(=O)(=O)O1`, the T/C (dose: 50.0 mg/kg/injection, schedule: Q01DX009 (ip), vehicle: carboxymethylcellulose (CMC)) was 99 % of control and the T/C (dose: 100.0 mg/kg/injection, schedule: Q01DX009 (ip), vehicle: carboxymethylcellulose (CMC)) was 87 % of control.
With `CC1(C)C(=O)NC(=O)C1(C)C`, the T/C reads like this: under setting [15], 92 % of control; under setting [5], 96 % of control; under setting [6], 95 % of control; under setting [7], 90 % of control.
As for `CCN(C=O)CC`, the T/C is, setting by setting: under setting [16], 117 % of control; under setting [17], 115 % of control; (dose: 400.0 mg/kg/injection, schedule: Q01DX009 (ip), vehicle: saline) 107 % of control.
With `BrC[P+](CBr)(CBr)CBr`, the T/C reads like this: under setting [13], 100 % of control; under setting [2], 105 % of control; under setting [3], 104 % of control; under setting [4], 89 % of control.
Consider `Cc1ccc(S(=O)(=O)N/N=C/c2ccccc2Cl)cc1`, for which the T/C reads like this: (dose: 1.56 mg/kg/injection, schedule: Q01DX009 (ip), vehicle: other) 98 % of control; (dose: 3.13 mg/kg/injection, schedule: Q01DX009 (ip), vehicle: other) 99 % of control; (dose: 6.25 mg/kg/injection, schedule: Q01DX009 (ip), vehicle: other) 96 % of control; under setting [9], 91 % of control; (dose: 12.5 mg/kg/injection, schedule: Q01DX009 (ip), vehicle: other) 90 % of control; under setting [11], 89 % of control. Further, the T/C under setting [14] was 86 % of control.
As for `Cc1cc(N(CC(C)Br)CC(C)Br)ccc1N=Nc1ccccc1C(=O)O` (centres undefined), the T/C under setting [13] was 165 % of control and 185 % of control.
Consider `Cc1c2oc3c(C)ccc(C(=O)NC4C(=O)NC(C(C)C)C(=O)N(C)CC(=O)N(C)CC(=O)N(C)C(C(C)C)C(=O)OC4C)c3nc-2c(C(=O)NC2C(=O)NC(C(C)C)C(=O)N(C)CC(=O)N(C)CC(=O)N(C)C(C(C)C)C(=O)OC2C)c(N)c1=O` (centres undefined) (I: TV[Sar][Sar][NMeV] / II: TV[Sar][Sar][NMeV]; ester I:1-I:C, II:1-II:C; linker I:N-II:N via Actinocin(9to1); configuration not given here), for which the T/C is 161 % of control (dose: 0.71 mg/kg/injection, schedule: Q01DX009 (ip), vehicle: water); 161 % of control (dose: 1.07 mg/kg/injection, schedule: Q01DX009 (ip), vehicle: water); 112 % of control (dose: 125.0 micrograms/kg/injection, schedule: Q01DX009 (ip), vehicle: saline + alcohol); 117 % of control and 123 % of control (dose: 375.0 micrograms/kg/injection, schedule: Q04DX003 (ip), vehicle: saline + alcohol); 162 % of control (dose: 1500.0 micrograms/kg/injection, schedule: Q04DX003 (ip), vehicle: saline + alcohol); 159 % of control (dose: 3000.0 micrograms/kg/injection, schedule: Q04DX003 (ip), vehicle: saline + alcohol).
For the molecule `CC(=O)OC1=C(c2ccccc2)C(=O)c2ccccc21`, the T/C is, setting by setting: (dose: 25.0 mg/kg/injection, schedule: Q04DX003 (ip), vehicle: Klucel (hydroxypropylcellulose) (HPC)) 86 % of control; (dose: 50.0 mg/kg/injection, schedule: Q04DX003 (ip), vehicle: Klucel (hydroxypropylcellulose) (HPC)) 86 % of control; under setting [1], 86 % of control.
